We go through one compound from patent US9528114B2, “Method for amplifying locus in bacterial cell” (DANISCO US INC., priority 2008, dated 2016).

One assay relates to BG3594, pDALsub1. Briefly: Sensitivity to β-chloro-D-alanine of strain carrying alr-expressing plasmid, LB agar plates. Also on record: key to Resistance (growth) on LB agar plate: +: growth; −: no growth. As to conditions: for Resistance (growth) on LB agar plate: strain BG3594, pDALsub1. In kind it is cell-based, Bacillus subtilis. On the procedure:
(§1) In a first phase, the concentration of β-chloro-D-alanine (CDA) necessary to inhibit growth of B. subtilis was determined by plating dilutions of LB-grown strain BG3594 on LB agar plates containing different concentrations of CDA. […] Other alanine racemase inhibitors, such as cycloserine, could be used instead of CDA.

A further assay relates to Bacillus subtilis BG3594. Briefly: Sensitivity threshold to β-chloro-D-alanine, dilutions plated on LB agar plates. In kind it is cell-based. Also on record: key to Resistance (growth) on LB agar plate: +: growth; −: no growth. The following applies: for Resistance (growth) on LB agar plate: strain BG3594; for Growth of BG3594 in presence of CDA: LB agar. As for the experimental part: as §1

For the compound `N[C@H](CCl)C(=O)O` [CDA, β-chloro-D-alanine], the “Resistance (growth) on LB agar plate” value with BG3594, pDALsub1 (CDA 20 mg/L) was “+”; in the assay with BG3594, pDALsub1 (CDA 50 mg/L), “+”; in the assay on BG3594, pDALsub1 (CDA 100 mg/L), “+”; in the assay with Bacillus subtilis BG3594 (CDA 20 mg/L), “+”; in the assay on Bacillus subtilis BG3594 (CDA 50 mg/L), “−**”; in the assay on Bacillus subtilis BG3594 (CDA 100 mg/L), “−”. The “Growth of BG3594 with alr-expressing plasmid in presence of CDA” value in the assay on BG3594, pDALsub1 (all CDA concentrations tested (up to 100 mg/L), LB agar) was “allows growth”. Besides, the “Growth of BG3594 in presence of CDA” value in the assay with Bacillus subtilis BG3594 (concentration of 20 mg/L) is “can still grow”; in the assay on Bacillus subtilis BG3594 (concentration of 50 mg/L), “totally inhibited”.
